Test results from ChEMBL document CHEMBL1201862, “PubChem BioAssay data set” (2004).
The source made the active and inactive calls. Cut-off read from the data, not from the text of the source, for most assays here: actives have a measured EC50 and inactives only a lower limit.

Legend:
[1] = biological target: T1, Zinc finger protein mex-5 (Caenorhabditis elegans, UniProt Q9XUB2); assay: MEX-5/TCR-2 RNA interaction inhibitors, dose response, biochemical, C. elegans, fluorescence polarization (AID 1960)
T1 sequence (Q9XUB2 whole entry): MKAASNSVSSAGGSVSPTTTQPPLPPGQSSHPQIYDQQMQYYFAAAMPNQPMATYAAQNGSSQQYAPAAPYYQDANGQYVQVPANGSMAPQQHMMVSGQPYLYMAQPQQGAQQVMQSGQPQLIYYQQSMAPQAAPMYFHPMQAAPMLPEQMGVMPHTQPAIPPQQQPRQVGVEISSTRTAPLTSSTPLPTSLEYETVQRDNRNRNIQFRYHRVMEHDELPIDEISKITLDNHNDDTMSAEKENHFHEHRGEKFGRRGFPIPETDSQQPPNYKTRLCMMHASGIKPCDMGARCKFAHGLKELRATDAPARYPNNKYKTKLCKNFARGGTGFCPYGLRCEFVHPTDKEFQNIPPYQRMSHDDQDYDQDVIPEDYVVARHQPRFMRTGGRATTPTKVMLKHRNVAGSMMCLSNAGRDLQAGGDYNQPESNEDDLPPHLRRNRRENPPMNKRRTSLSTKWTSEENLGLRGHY

[2] = biological target: T2, RNA-binding protein pos-1 (Caenorhabditis elegans, UniProt G5EF15); assay: inhibitors of POS-1/mex-3 RNA binding, dose response, biochemical, fluorescence polarization (AID 1964);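 note: purified POS-1 fused to maltose binding protein made in E. coli; potency of compounds blocking POS-1 binding to fluorescent RNA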
T2 sequence (G5EF15 whole entry): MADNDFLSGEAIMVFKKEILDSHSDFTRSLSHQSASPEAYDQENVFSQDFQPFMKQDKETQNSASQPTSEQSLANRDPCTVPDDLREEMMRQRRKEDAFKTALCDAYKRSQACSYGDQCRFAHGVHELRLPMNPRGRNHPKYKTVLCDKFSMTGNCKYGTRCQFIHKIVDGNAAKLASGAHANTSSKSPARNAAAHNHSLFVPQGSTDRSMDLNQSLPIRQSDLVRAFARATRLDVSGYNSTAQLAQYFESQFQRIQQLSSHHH

[3] = biological target: Luciferin 4-monooxygenase (Photinus pyralis, UniProt P08659); assay: firefly luciferase enzyme inhibitors, dose response, biochemical, luminescence (AID 1891)
Chain of Luciferin 4-monooxygenase (P08659 whole entry): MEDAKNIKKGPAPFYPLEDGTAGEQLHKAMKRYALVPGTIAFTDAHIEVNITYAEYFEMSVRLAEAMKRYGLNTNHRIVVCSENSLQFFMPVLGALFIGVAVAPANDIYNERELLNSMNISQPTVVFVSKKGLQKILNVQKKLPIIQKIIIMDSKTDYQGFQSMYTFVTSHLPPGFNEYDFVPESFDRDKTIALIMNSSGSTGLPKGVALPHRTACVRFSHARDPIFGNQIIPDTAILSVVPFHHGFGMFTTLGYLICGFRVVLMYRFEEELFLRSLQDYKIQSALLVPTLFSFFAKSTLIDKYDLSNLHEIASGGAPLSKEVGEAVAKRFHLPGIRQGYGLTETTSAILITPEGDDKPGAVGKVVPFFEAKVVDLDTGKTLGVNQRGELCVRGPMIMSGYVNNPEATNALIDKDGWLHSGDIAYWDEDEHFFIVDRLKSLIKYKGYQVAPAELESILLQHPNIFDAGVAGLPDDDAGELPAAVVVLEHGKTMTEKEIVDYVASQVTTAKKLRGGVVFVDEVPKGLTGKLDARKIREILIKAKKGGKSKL

[4] = Luminescence Cell-Based Dose Confirmation HTS to Identify Inhibitors of Platelet Dense Granule Release. [Related pubchem assays: 1663 (Primary HTS), 1678 (Summary of Project)]; type: functional
[5] = cells; type: functional, cell-based
[6] = cells; type: functional, cell-based; remark: listed apart in the source
[7] = system: H4; assay: Luminescence Cell-Based Dose Response HTS to Identify Activators of 5'UTR Stem-Loop Driven Prion Protein mRNA Translation in H4 Neuroglioblastoma Cells. [Related pubchem assays: 1829 (Project Summary), 1814 (Primary HTS)]; type: functional; conditions: Homo sapiens
[8] = Luminescence Cell-Based Dose Response HTS to Identify Activators of Luciferase Translation or Activity in H4 […] Cells. [Related pubchem assays: 1829 (Project Summary), 1814 (Primary HTS)]; type: functional
[9] = Luminescence Cell-Based Dose Confirmation HTS to Identify Activators of 5'UTR Stem-Loop Driven Alpha-Synuclein mRNA Translation in H4 Neuroglioblastoma Cells. [Related pubchem assays: 1829 (Project Summary), 1814 (Primary HTS)]; type: functional
[10] = biological target: T3, Corticotropin-releasing factor receptor 2/Corticotropin-releasing factor-binding protein (Homo sapiens, UniProt P24387+Q13324); assay: activators of CRF receptor 2 with binding protein – uHTS hits, confirmation (AID 602473); type: functional; conditions: read-out: EC50_Mean
T3 sequence (Q13324 whole entry): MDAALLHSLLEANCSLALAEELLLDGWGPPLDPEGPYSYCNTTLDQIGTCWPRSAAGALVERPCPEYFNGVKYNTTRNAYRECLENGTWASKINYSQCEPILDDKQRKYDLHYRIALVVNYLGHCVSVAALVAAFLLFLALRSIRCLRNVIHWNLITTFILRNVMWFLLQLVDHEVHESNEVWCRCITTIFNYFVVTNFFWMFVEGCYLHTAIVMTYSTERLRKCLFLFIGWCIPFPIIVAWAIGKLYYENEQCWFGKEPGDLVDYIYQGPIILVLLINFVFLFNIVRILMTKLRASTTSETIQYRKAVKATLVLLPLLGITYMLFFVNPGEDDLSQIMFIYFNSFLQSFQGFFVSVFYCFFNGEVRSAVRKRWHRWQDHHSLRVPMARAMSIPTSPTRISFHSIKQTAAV
T3 sequence (P24387 whole entry): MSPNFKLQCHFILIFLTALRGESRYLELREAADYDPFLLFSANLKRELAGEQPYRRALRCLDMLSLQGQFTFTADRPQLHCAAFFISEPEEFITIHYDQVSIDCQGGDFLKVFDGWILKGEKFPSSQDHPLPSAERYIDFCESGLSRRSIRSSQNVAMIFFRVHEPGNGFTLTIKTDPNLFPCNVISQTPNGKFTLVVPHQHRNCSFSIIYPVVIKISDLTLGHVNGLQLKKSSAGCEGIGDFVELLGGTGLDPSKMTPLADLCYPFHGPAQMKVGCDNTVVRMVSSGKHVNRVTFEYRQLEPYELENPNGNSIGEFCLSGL

[11] = biological target: T4, Rac GTPase-activating protein 1 (Homo sapiens, UniProt Q9H0H5); assay: MgcRacGAP GTPase-activating activity inhibitors, confirmation, biochemical, ADP Hunter fluorescence, primary and confirmatory (AID 624330); type: functional
T4 sequence (Q9H0H5 whole entry): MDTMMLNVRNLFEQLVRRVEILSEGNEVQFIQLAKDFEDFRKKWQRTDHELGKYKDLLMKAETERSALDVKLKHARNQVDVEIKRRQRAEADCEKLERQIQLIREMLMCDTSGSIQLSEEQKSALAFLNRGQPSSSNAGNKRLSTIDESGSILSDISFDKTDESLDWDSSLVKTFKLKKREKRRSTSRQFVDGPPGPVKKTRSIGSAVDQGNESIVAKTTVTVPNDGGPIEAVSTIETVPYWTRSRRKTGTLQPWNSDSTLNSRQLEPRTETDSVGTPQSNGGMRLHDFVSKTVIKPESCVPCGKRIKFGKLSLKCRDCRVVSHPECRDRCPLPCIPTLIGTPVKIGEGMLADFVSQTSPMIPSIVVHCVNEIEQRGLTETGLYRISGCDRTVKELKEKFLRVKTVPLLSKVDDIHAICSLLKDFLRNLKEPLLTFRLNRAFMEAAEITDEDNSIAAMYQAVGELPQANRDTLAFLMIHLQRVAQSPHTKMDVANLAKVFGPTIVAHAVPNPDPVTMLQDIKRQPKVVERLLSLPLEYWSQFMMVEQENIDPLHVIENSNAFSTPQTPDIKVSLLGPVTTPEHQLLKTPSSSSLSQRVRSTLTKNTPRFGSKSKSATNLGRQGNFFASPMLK

[12] = system: Streptococcus sp. 'group A'; assay: growth inhibition of control SK(-) GAS strain, dose response, counter-screen for streptokinase expression inhibitor project, luminescence, kanamycin, BacTiterGlo, confirmation (AID 1900); type: functional, organism-based; conditions: Streptococcus sp. 'group A'
[13] = biological target: T5, Streptokinase A (Streptococcus pyogenes serotype M1, UniProt P10520); assay: S. pyogenes streptokinase expression inhibitors, potency, dose response, plasminogen activation absorbance, OD405 (AID 1914); type: functional, Streptococcus pyogenes M1 GAS;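 note: secreted streptokinase activity via plasminogen activation per viability signal from cell pellet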
T5 sequence (P10520 whole entry): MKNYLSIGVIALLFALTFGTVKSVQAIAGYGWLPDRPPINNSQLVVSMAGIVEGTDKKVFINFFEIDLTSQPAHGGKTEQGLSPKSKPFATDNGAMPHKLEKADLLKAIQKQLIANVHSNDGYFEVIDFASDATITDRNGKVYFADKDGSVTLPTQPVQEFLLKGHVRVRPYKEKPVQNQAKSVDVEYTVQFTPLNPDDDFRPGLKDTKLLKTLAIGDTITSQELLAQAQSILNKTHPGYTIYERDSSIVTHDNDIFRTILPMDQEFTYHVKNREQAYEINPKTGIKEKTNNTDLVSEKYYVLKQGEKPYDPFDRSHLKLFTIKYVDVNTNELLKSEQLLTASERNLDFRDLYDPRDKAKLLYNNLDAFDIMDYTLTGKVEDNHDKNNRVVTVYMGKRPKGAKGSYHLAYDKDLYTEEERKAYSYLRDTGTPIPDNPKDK

[14] = system: Streptococcus; assay: Group A Streptococcus viability loss, dose response, counter-screen for streptokinase expression inhibitor project, luminescence, BacTiterGlo (AID 1915); type: functional, organism-based; conditions: Streptococcus;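 note: potency for reduction of bacterial viability or growth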
[15] = system: INS1; assay: beta cell apoptosis inhibitors, cytokine rescue, dose response, luminescence, retest (AID 449756); type: functional, cell-based; conditions: Rattus norvegicus;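 note: cell death triggered by IL-1 beta plus TNF-alpha plus IFN-gamma mixture; protective hits raise ATP signal compared with cytokine alone wells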
[16] = Luminescence Cell-Based Dose Retest to Confirm Inhibitors of Cancer Stem Cells. [Related pubchem assays (depositor defined):AID2717, AID2721]; type: functional, Homo sapiens; conditions: Homo sapiens

Compound: Cc1cc(O)cc2c1C(=O)/C(=C/c1ccco1)O2
- EC50 [1]: > 300 µM (not active)
- EC50 [2]: 15.8 µM (active)

Compound: CC(C)(C)OC(=O)NCCCCC1=CC2=CC(=O)C(C)(OC(=O)c3ccco3)C(=O)C2=CO1 (centres undefined)
- EC50 [1]: 30.3 µM (active)
- EC50 [2]: 35.5 µM (active)

Compound: C=CCN1C(=O)/C(=C2/Sc3ccccc3N2C)S/C1=N\c1c(C)n[nH]c1C
- EC50 [3]: > 112 µM (not active)
- EC50 [4]: 17.5 µM (active)

Compound: COc1ccccc1OCc1nnc(SCC(=O)NCc2ccco2)n1-c1ccccc1
- EC50 [5]: > 350 µM (not active)
- EC50 [6]: > 350 µM (not active)

Compound: CN(C)S(=O)(=O)c1ccc(Cl)c(NC(=O)COc2ccccc2[N+](=O)[O-])c1
- EC50 [3]: > 112 µM (not active)
- EC50 [4]: > 112 µM (not active)

Compound: Cc1ccc2nc3c(O)n(CC(=O)NCCCN(C)Cc4ccccc4)ncc-3c2c1
- EC50 [5]: > 350 µM (not active)
- EC50 [6]: > 350 µM (not active)

Compound: CCOC(=O)C1CCCN(C(=O)c2ccc3oc(Cc4ccccc4)nc3c2)C1 (centres undefined)
- EC50 [3]: > 112 µM (not active)
- EC50 [7]: 36.4 µM (active)
- EC50 [8]: 16.2 µM (active)
- EC50 [4]: > 112 µM (not active)
- EC50 [9]: 13.9 µM (active)

Compound: COc1ncnc2sc(-c3ccccc3)cc12
- EC50 [3]: 2.4 µM (active)
- EC50 [4]: 6.33 µM (active)

Compound: COc1ccccc1Nc1nc2nonc2nc1N1CCCCC1C (centres undefined)
- EC50 [1]: > 300 µM (not active)
- EC50 [2]: 95.5 µM (active)

Compound: Cn1c(CCNC(=O)c2ccco2)nc2cc(NC(=O)C3CCCCC3)ccc21
- EC50 [5]: > 350 µM (not active)
- EC50 [6]: 97.8 µM (active)

Compound: NC(=Nc1ccc(N)cc1)C(N)=Nc1ccc(N)cc1
- EC50 [1]: 42.8 µM (active)
- EC50 [2]: > 300 µM (not active)

Compound: Clc1cccc(CSc2nc3cc[nH]cc-3n2)c1
- EC50 [1]: > 300 µM (not active)
- EC50 [2]: > 300 µM (not active)

Compound: Cc1ccc2cccc(S(=O)(=O)N3CCCc4ccccc43)c2n1
- EC50 [10]: 11.9 µM (active)
- EC50 [3]: 34 µM (active)
- EC50 [4]: 15.8 µM (active)

Compound: CC1(C)C[C@H](O)[C@@]23C[C@@H](OC2=O)[C@]2(C)C(=CCC4[C@@]5(C)CC[C@H](O)C(C)(C)C5CC[C@]42C)[C@@H]3C1 (some centres undefined)
- EC50 [10]: 5.32 µM (active)

Compound: Cc1ccc(OCCCN2CCCC2)c(C)c1
- IC50 [11]: 105 µM (active)

Compound: O=[N+]([O-])c1ccc(/N=C/c2ccc(Br)c([N+](=O)[O-])c2)cc1
- EC50 [5]: > 350 µM (not active)
- EC50 [6]: > 350 µM (not active)

Compound: CCCC(=O)C1=C(N2CCCCC2)CC(C)(C)C(C(=O)OC)C1=O (centres undefined)
- EC50 [3]: > 112 µM (not active)
- EC50 [4]: > 112 µM (not active)

Compound: C=CCOc1ccc(/C=C2\SC(N)=NC2=O)cc1OC
- EC50 [5]: > 350 µM (not active)
- EC50 [6]: > 350 µM (not active)

Compound: CC(=O)c1cc(NC(=O)c2ccc(C)cc2)c(=O)oc1/C=C/N(C)C
- EC50 [10]: 6.73 µM (active)

Compound: O=C(/C=C/c1cn(-c2ccccc2)nc1-c1ccccc1)Nc1ccc(C(=O)O)cc1
- EC50 [5]: > 350 µM (not active)
- EC50 [12]: 6.15 µM (active)
- EC50 [13]: > 150 µM (not active)
- EC50 [6]: 24.8 µM (active)
- EC50 [14]: 15.5 µM (active)

Compound: O=C(NC(=S)Nc1cccc2c(O)cccc12)c1ccco1
- IC50 [11]: 32.3 µM (active)

Compound: NC(CCCCc1ccccc1)c1cccc2ccccc12 (centres undefined)
- EC50 [3]: > 112 µM (not active)
- EC50 [4]: 24.6 µM (active)

Compound: C=CCc1cccc(/C=N/NC(=O)c2ccc3[nH]cnc3c2)c1O
- AC50 [15]: 1.61 µM (active)
- EC50 [5]: 11.8 µM (active)
- EC50 [6]: 44.5 µM (active)
- AC50 [16]: 3.81 µM (active)

Compound: COc1ccc(S(=O)(=O)N(Cc2cccnc2)Cc2cc3ccccc3nc2O)cc1
- EC50 [3]: > 112 µM (not active)
- EC50 [4]: > 112 µM (not active)

Compound: COC(=O)Cn1/c(=N/C(=O)CSC(C)=O)sc2ccccc21
- EC50 [3]: > 112 µM (not active)
- EC50 [4]: > 112 µM (not active)

Compound: CC(=O)Nc1ccc(CN2CCCC(CO)(Cc3cccc(Cl)c3)C2)cc1 (centres undefined)
- EC50 [10]: > 53 µM (inactive)

Compound: O=C1CSC(=S)N1N1C(=O)c2cccc([N+](=O)[O-])c2C1=O
- EC50 [1]: 24.8 µM (active)
- EC50 [2]: 24.9 µM (active)

Compound: CNc1c(N)n(Cc2ccccc2)c(=O)[nH]c1=O
- EC50 [1]: 92.1 µM (inconclusive)
- EC50 [2]: > 300 µM (not active)

Compound: Cc1n[nH]c(S/C(=C/c2ccc(-c3cccc(Cl)c3)o2)C(=O)O)n1
- EC50 [1]: 69.5 µM (active)
- EC50 [2]: > 300 µM (not active)

Compound: O=C(c1cc(C2CC2)nn1-c1ccccc1)N1CCN(c2ccc(O)cc2)CC1
- IC50 [11]: 37.9 µM (active)

Compound: CCC1(c2ccccc2)NC(=O)N(CC(=O)Nc2ccc(N3CCCC3)cc2C)C1=O (centres undefined)
- IC50 [11]: 112 µM (active)
